Patent US20050245465A1, “Compounds for treating Alzheimer's disease and for inhibiting beta-amyloid peptitde production” (priority 2004, published 2005)
Entries after “also recorded” stand apart in the source; their conditions may differ. Where two headings read alike, the source gives them in different places.

Experiments:
[1] = tested on: CHO cells expressing human APP; test: Secreted Aβ40/Aβ42 ELISA in medium of CHO-APP cells; assay type: cell-based, Chinese hamster; design: key to Aβ42-lowering activity: Aβ42-lowering activity (“Yes”); no profound effects (“No”); non-determined (“ND”); Ginsenosides that affected cell viability are indicated as “Cytotoxic.”; conditions: for Aβ42-lowering activity: Tables 1-3; for secretion of Aβ42 (initial screening): heat-processing derived ginsenosides; for production of Aβ42 in cells (summary statement): mammalian cells, in vitro; for Aβ42 in the medium, dose-dependence: CHO cells expressing human APP; for generation of Aβ42 (Aβ42 levels in the medium, ELISA, normalized to intracellular full-length APP): CHO cells stably transfected with human APP695, 50 μg/ml, 8 hrs; for Aβ42 vs. Aβ40 in the medium (preference): normalized to non-treated and vehicle-treated cells
Protocol: The CHO cells were treated with the indicated compounds (at 50 μg/ml) for 8 hrs. Aβ42 levels in the medium were measured by ELISA and normalized to intracellular full-length APP.
The potential effects of ginsenosides and their analogues in treating AD were examined. First, a number of ginsenosides were screened based on their effects on Aβ generation. The effects of various ginsenosides on Aβ (e.g., Aβ40 and Aβ42) production was initially accessed by incubating the Chinese hamster ovary (CHO) cells expressing human APP(CHO-APP cells) with each ginsenoside purified from unprocessed ginseng (known as “white ginseng”). These representative ginsenosides included Rb1, Rb2, Rc, Rd, Re, Re, Rg1 and Rg2 and differ in their side chains and sugar moieties.
After 8 hours of incubation, the media were collected and the levels of secreted Aβ40 and Aβ42 were determined by ELISA.
Steaming ginseng at high temperature gave rise to additional ginsenosides with enhanced pharmacological activity, including (20S)Rg3, Rk1 and Rg5 (22-25). Next, the effects of these heat-processing derived ginsenosides (e.g., (20S)Rg3, Rh1, Rh2, Rk1, Rg6, Rg5) on Aβ40 and Aβ42 generation were tested. […] In contrast, Aβ42 levels were not affected by (20R)Rg3, Rh1, and Rg6. Aβ40 levels were not changed by treatment with any of the ginsenosides tested. The potency of Aβ42-lowering activity was highest with Rk1 and (20S)Rg3. […] The secretion of Aβ40 was affected by treatment with Rk1 only at very high concentration (˜100 μM) and cell viability was not affected by treatment of Rk1 under these conditions (up to 100 μM, 8 hour treatment; data not shown). […] Overnight treatment with Rgk351, Rk1, and Rg5 also reduce Aβ42 production in CHO-APP cells (FIG. 12B). […] These studies provide a structure-activity relationship between the chemical structures of ginsenosides and Aβ42-lowering activity, further providing the basis for designing additional Aβ42-lowering analogues as well as for defining a class of compounds that harbor Aβ42-lowering activity.

CHO-APP/PS1 cells = test: Secreted Aβ40/Aβ42 ELISA in CHO-APP/PS1 cells; assay type: cell-based, Chinese hamster; conditions: for Aβ42 levels: CHO cells co-expressing human APP with wild-type PS1 or FAD mutant PS1 (delta E9, L286V)
Protocol: (§1) FIG. 10 depicts the effects of native ginsenosides on Aβ42 production. CHO cells stably transfected with human APP695 together with either wild-type (A, CHO-APP/PS1 cells) or ΔE9 FAD mutant (B, CHO-APP/ΔE9PS1 cells) forms of PS1 were used. Cells were treated with the indicated compounds (at 50 μM) for 8 hrs. Levels of secreted Aβ40 and Aβ42 in the medium were determined by ELISA and normalized to intracellular full-length APP. In CHO-APP/PS1 cells, average Aβ amounts in control samples were 320 pM for Aβ40 and 79 pM for Aβ42. The relative levels of Aβ and Aβ42 were normalized to values obtained from non-treated and vehicle-treated cells and are shown as % to control+s.d.). One of three representative experiments are shown.
(§2) CHO-APP/PS1 (A) and CHO-APP/ΔE9PS1 (B) cells were treated with the indicated compounds at 50 μM for 8 hrs and the levels of secreted Aβ40 and Aβ42 were determined as described in FIG. 1. […] The PS1-ΔE9 FAD mutation diminished the Aβ42 response to Rk1 treatment (B).

CHO-APP/ΔE9PS1 cells = test: Secreted Aβ40/Aβ42 ELISA in CHO-APP/ΔE9PS1 cells; assay type: cell-based, Chinese hamster; conditions: 50 μM, 8 hrs
Protocol: as §1, §2
Steaming ginseng at high temperature gave rise to additional ginsenosides with enhanced pharmacological activity, including (20S)Rg3, Rk1 and Rg5 (22-25). Next, the effects of these heat-processing derived ginsenosides (e.g., (20S)Rg3, Rh1, Rh2, Rk1, Rg6, Rg5) on Aβ40 and Aβ42 generation were tested. […] In contrast, Aβ42 levels were not affected by (20R)Rg3, Rh1, and Rg6. Aβ40 levels were not changed by treatment with any of the ginsenosides tested. The potency of Aβ42-lowering activity was highest with Rk1 and (20S)Rg3. […] The secretion of Aβ40 was affected by treatment with Rk1 only at very high concentration (˜100 μM) and cell viability was not affected by treatment of Rk1 under these conditions (up to 100 μM, 8 hour treatment; data not shown). […] Overnight treatment with Rgk351, Rk1, and Rg5 also reduce Aβ42 production in CHO-APP cells (FIG. 12B). […]

γ-secretase [2] = test: Cell-free γ-secretase assay (CHAPSO-solubilized membrane fractions, Aβ ELISA); assay type: biochemical; conditions: for Aβ40 and Aβ42 generation in cell-free γ-secretase assay: dose-response
Protocol: (A) CHAPSO-solubilized membrane fractions were incubated with recombinant γ-secretase substrates together with the indicated compounds (at 100 μM) and the levels of Aβ42 and Aβ40 were determined by ELISA as described (27-29). (B) Dose-response of Aβ40 and Aβ42-lowering activity of Rk1 and (20S)Rg3 in a cell-free γ-secretase assay.
Next, the inhibitory effects of Rk1 and (20S)Rg3 on Aβ generation in an in vitro γ-secretase assay was studied. […] In contrast, naproxen, an NSAID without Aβ42-lowering activity, had no effects on Aβ42 production (FIG. 15A).

CHO-APP cells = test: Mass spectrometric analysis of Aβ species from CHO-APP cells; assay type: cell-based, Chinese hamster; conditions: mass spectrometry, vs DMSO
Protocol: Note that treatment leads to a decrease in Aβ42 species (1-42), and elevation in both Aβ37 (1-37) and Aβ38 (1-38). Mass spectrometric analysis of Aβ species were performed as previously described (Wang R, Sweeny D, Gandy S E, Sisodia S S. The profile of soluble amyloid β-protein in cultured cell media. J. Bio. Chem. 1996; 271: 31894-31902).

[3] = tested on: primary embryonic cortical neurons derived from Tg2576 transgenic mice; test: Aβ40 and Aβ42 secretion in primary embryonic cortical neurons; assay type: cell-based
Excerpt: Treatment of Rk1 and Rg3 decreased the level of secreted Aβ40 and Aβ42.

APP = test: Western blot of APP processing in CHO-APP and Neuro2a-APPsw cells; assay type: cell-based, Chinese hamster and mouse; conditions: cell lysates; for APP C-terminal fragments (γ-secretase substrates): CHO-APP and Neuro2a APPsw cells
Excerpt: FIG. 13. depicts an analysis of APP processing after Rk1 treatment. Steady-state levels of full-length APP and APP C-terminal fragments (APP-CTFs) were examined by Western blot analysis using anti-R1 antibody. […] Correlated Aβ42 levels for each sample are shown in the bottom panel.

CHO cells = test: Cell viability of treated CHO cells; assay type: cell-based, Chinese hamster
Protocol: as §2
Tables 1-3 Structure of ginsenosides utilized in the study and their effects on Aβ42 generation. They differ at the two or three side chains attached to the common triterpene backbone known as dammarane. The common structure skeleton for each group of ginsenosides is shown in the top panel. Ginsenosides that harbor Aβ42-lowering activity are indicated in the far right column of the tables: Aβ42-lowering activity (“Yes”), no profound effects (“No”), and non-determined (“ND”). Ginsenosides that affected cell viability are indicated as “Cytotoxic.” Abbreviation for carbohydrates are as follows: Glc, D-glucopyranosyl; Ara (pyr), L-arabinopyranosyl; Ara (fur), L-arabinofuranyosyl; Rha, L-rhamnopyranosyl.
Steaming ginseng at high temperature gave rise to additional ginsenosides with enhanced pharmacological activity, including (20S)Rg3, Rk1 and Rg5 (22-25). Next, the effects of these heat-processing derived ginsenosides (e.g., (20S)Rg3, Rh1, Rh2, Rk1, Rg6, Rg5) on Aβ40 and Aβ42 generation were tested. […] In contrast, Aβ42 levels were not affected by (20R)Rg3, Rh1, and Rg6. […]

γ-secretase [4] = test: Cell-free generation of intracellular domains (AICD, NICD, p75-ICD) in membrane fractions of 293 cells; assay type: biochemical; conditions: membrane fractions from 293 cells overexpressing APP, Notch-ΔE or p75-ΔE
Protocol: Membrane fractions isolated from 293 cells overexpressing either APP (A), Notch-ΔE (B) or p75-ΔE (C) and incubated in the presence of indicated compounds: Compound E (CpdE, general γ-secretase inhibitor), Rgk351, Rk1 and sulindac sulfide (SS).
Since the effect of Rk1 was rather selective to Aβ42 (but not Aβ40) in a cell-based assay, the question of whether Rk1 affects other γ-secretase-mediated cleavage events, including the generation of AICD resulted from a transmembrane cleavage of APP distal from either Aβ40 or Aβ42 site, and γ-secretase-mediated intramembrane cleavage of Notch1 or p75 neurotrophin receptor (p75NTR) to yield Notch1 or p75NTR intracellular domains (NICD or p75-ICD, respectively) was tested. The cell-free generation of AICD, NICD and p75-ICD was not affected by incubation with Rgk351 or Rk1 (FIG. 5).

[5] = cell-free γ-secretase assay, read-out: IC50 for Aβ40
[6] = cell-free γ-secretase assay, read-out: IC50 for Aβ42
[7] = overnight treatment, CHO-APP cells

Row | IC50 (γ-secretase [2]; [5]) | IC50 (γ-secretase [2]; [6]) | Structure (SMILES) | potency of Aβ42-lowering activity (comparison among ginsenosides) [1] | Aβ42-lowering activity [1] | secretion of Aβ42 (initial screening) [1] | production of Aβ42 in cells (summary statement) [1] | potency of Aβ42-reducing activity (order) (CHO-APP/PS1 cells; 50 μM, 8 hrs) | Aβ42-lowering response in PS1 ΔE9 FAD mutant cells vs PS1 wild-type cells (CHO-APP/ΔE9PS1 cells) | Aβ40 and Aβ42 generation in cell-free γ-secretase assay (γ-secretase [2]) | Aβ37 (1-37) and Aβ38 (1-38) (CHO-APP cells) | Aβ42 species (1-42) (CHO-APP cells) | level of secreted Aβ40 and Aβ42 [3] | Aβ42 in the medium, dose-dependence [1] | generation of Aβ42 (Aβ42 levels in the medium, ELISA, normalized to intracellular full-length APP) [1] | Aβ42 vs. Aβ40 in the medium (preference) ([1]; CHO-APP cells) | Aβ42 production [1, 7] | Aβ42 levels (CHO-APP/PS1 cells) | full-length APP levels (APP) | APP C-terminal fragments (γ-secretase substrates) (APP) | other results
1 | 27 ± 4 µM | 26 ± 7 µM | CC(C)=CCC[C@](C)(O)[C@H]1CC[C@]2(C)[C@@H]1[C@H](O)C[C@@H]1[C@@]3(C)CC[C@H](O[C@@H]4O[C@H](CO)[C@@H](O)[C@H](O)[C@H]4O[C@@H]4O[C@H](CO)[C@@H](O)[C@H](O)[C@H]4O)C(C)(C)[C@@H]3CC[C@]12C [(20S)Rg3] | highest | Yes | selectively lowered | lower | Rk1>/=(20S)Rg3>Rg5>(20R)Rg3 | diminished | inhibits; also recorded: inhibited both Aβ40 and Aβ42 with a similar potency | elevation | decrease | decreased | – | – | – | – | – | – | – | –
2 | – | – | CC(C)=CC/C=C(\C)[C@H]1CC[C@]2(C)[C@@H]1[C@H](O)C[C@@H]1[C@@]3(C)CC[C@H](O[C@@H]4O[C@H](CO)[C@@H](O)[C@H](O)[C@H]4O[C@@H]4O[C@H](CO)[C@@H](O)[C@H](O)[C@H]4O)C(C)(C)[C@@H]3CC[C@]12C [Rg5] | much smaller as compared to Rgk351 and Rk1; also recorded: less effective | Yes | selectively lowered | lower | Rk1>/=(20S)Rg3>Rg5>(20R)Rg3 | diminished | – | – | – | – | reduced; also recorded: lower Aβ42 in a dose-dependent manner | reduce | preferentially reduced Aβ42 (vs. Aβ40) | reduce | much smaller as compared to Rgk351 and Rk1 | not affected | increased accumulation | –
3 | – | – | CC(C)=CCC[C@](C)(O)[C@H]1CC[C@]2(C)[C@@H]1[C@H](O)C[C@@H]1[C@@]3(C)CC[C@H](O[C@@H]4O[C@H](CO)[C@@H](O)[C@H](O)[C@H]4O)C(C)(C)[C@@H]3CC[C@]12C [Rh2] | – | – | – | – | – | – | – | – | – | – | – | – | – | – | – | – | – | Aβ42-lowering effects (CHO-APP/PS1 cells; 50 μM, 8 hrs): exhibited Aβ42-lowering effects; cell viability (CHO cells; 50 μM treatment): partially affected
4 | 27 ± 3 µM | 32 ± 5 µM | C=C(CCC=C(C)C)[C@H]1CC[C@]2(C)[C@@H]1[C@H](O)C[C@@H]1[C@@]3(C)CC[C@H](O[C@@H]4O[C@H](CO)[C@@H](O)[C@H](O)[C@H]4O[C@@H]4O[C@H](CO)[C@@H](O)[C@H](O)[C@H]4O)C(C)(C)[C@@H]3CC[C@]12C [Rk1] | most effective; also recorded: highest | Yes | selectively lowered | lower | Rk1>/=(20S)Rg3>Rg5>(20R)Rg3 | diminished | inhibits; also recorded: inhibited both Aβ40 and Aβ42 with a similar potency | elevation | decrease | decreased | reduced; also recorded: lower Aβ42 in a dose-dependent manner | reduce | preferentially reduced Aβ42 (vs. Aβ40); also recorded: preferentially lowers Aβ42 (vs. Aβ40) | reduce | reduced | not affected; also recorded: did not affect | increased accumulation; also recorded: up-regulated | concentration at which secretion of Aβ40 was affected ([1]; 8 hour treatment): ~100 µM; IC50 ([1]; CHO-APP cells, read-out: IC50 of Aβ42 lowering activity): ~20 µM; Aβ40 production [1, 7]: slightly affected; Aβ42 generation in vitro (γ-secretase [2]; cell-free γ-secretase assay, partially purified γ-secretase complex, 100 μM): inhibit; also recorded: potently inhibited; cell-free generation of AICD, NICD and p75-ICD (γ-secretase [4]): does not significantly affect; also recorded: not affected; cell viability (CHO cells; up to 100 μM, 8 hour treatment): not affected
